Test results published in PubChem BioAssay AID1918944 (Molecular Pharmacology Branch, DTP, NCI, 2023).
Where “and” joins values, the source holds several entries; their conditions need not be identical. Identical values can stand only once.

Test system: 786-0 complex spheroid viability
Assay: Anticancer human tumor 786-0 cell line growth inhibition;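 note: spheroids exposed to agents for seven days before readout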
Conditions: for viability, T/C: stronger effect = lower value
Source text: Multicellular complex tumor spheroid response to LSD1 Inhibitor Iadademstat in combination with a variety of drugs and investigational agents in selected tumor cell lines
The current study was undertaken to assess response to LSD1 inhibitors in combination with standard-of-care drugs and investigational agents in solid tumor complex spheroid models as well as in the K-562 leukemia. Complex spheroids include a stromal component modeled by human endothelial cells (HUVEC) and fibroblasts modeled by human mesenchymal stem cells (MSCs). The concentration ranges selected for each drug and investigational agent were based upon clinically achievable concentrations if the clinical Cmax of the agent was known.
Compounds. The drugs and investigational agents used in this study are listed on Table 1. All of the agents used, including staurosporine (NSC755774) and gemcitabine (NSC613327), were obtained from the Developmental Therapeutics Program, NCI. FDA-approved anticancer drugs are available from the NCI at http://dtp.nci.nih.gov/branches/dscb/oncology_drugset_explanation.html. Drugs and investigational agents were >95% pure by proton nuclear magnetic resonance (NMR) and liquid chromatography/mass spectrometry (LC/MS). Stock solutions were prepared at 400x in DMSO, stored at -70 degrees C, and diluted in fresh medium prior to their use. The final concentration of DMSO in cell culture wells never exceeded 0.25% (v/v). The FDA-approved anticancer drug set is available from the Developmental Therapeutics Program at https://dtp.cancer.gov/organization/dscb/obtaining/available_plates.htm. All drugs and investigational agents were tested over a range starting from a high concentration at or near the clinical Cmax and decreasing in half-log increments. If the clinical Cmax for an agent had not been determined, the highest concentration tested was 10 microM.
Cell Lines. The patient-derived cancer cell (PDC) lines: 292921-168-R-J2-PDC, K24384-001-R-PDC, and 521955-158-R2-J5-PDC pancreatic carcinomas, 556581-035-R-J1 ovarian carcinoma, 324938-238-R-J1-PDC, 855422-203-R-J1-PDC and 883617-216-R-J1-PDC urothelial bladder carcinomas, 743489-274-T-PDC renal cell carcinoma, 138582-R-J1 Merkel cell tumor, K60290-347-R-J1 and K57222-313-R-J1-PDC glioblastomas, 653999-131-R-J2-PDC, LG0703-F948-PDC, and 349418-098-R-PDC non-small cell lung carcinomas, 885512-296-R-J2-PDC, 171881-019-R-J1-PDC breast carcinomas and 186277-243-T-J2-PDC and 233499-124-R-J2-PDC colon carcinomas were obtained from the NCI Patient-Derived Models Repository (PDMR, https://pdmr.cancer.gov). The established cell lines NCI/ADR-RES (RRID:CVCL_14520 and OVCAR-5 (RRID:CVCL_1628) ovarian carcinomas, 786-O (RRID:CVCL_1051) and A498 (RRID:CVCL_A498) renal cell carcinoma, NCI-H211 (ATCC, cat. CRL-5824; RRID:CVCL_1529), NCI-H196 (ATCC, cat. CRL-5823, RRID:CVCL_1509), SW 1271 (ATCC, cat. CRL-2177, RRID:CVCL_1716) and NCI-H1876 (ATCC, cat. CRL-5902, RRID:CVCL_1503) small cell lung carcinomas, MDA-MB-231 (RRID:CVCL_0062) and MDA-MB-468 (RRID:CVCL_0419)breast carcinomas (10-12). Pooled donor human umbilical vein endothelial cells (HUVEC, Lonza, cat. CC-2519) and human mesenchymal stem cells (hMSC, Lonza, cat. PT-2501) were purchased from Lonza (Walkersville, MD).
Cell Culture. All cells were maintained in an incubator at 37 degrees C and 5% CO2 with 95% humidity. The PDC lines were cultured according to standard operating procedures established by the NCI PDMR (https://pdmr.cancer.gov). Briefly all PDCs were thawed and cultured in Matrigel-coated flasks prepared with a working solution of 1X Ham's F-12 nutrient mix, without supplementation (Invitrogen, Waltham, MA, cat. 11765054), 100 U/mL penicillin-streptomycin (Invitrogen, cat. 15140122), and 2.5% Matrigel (Corning Inc., Corning, NY, cat. 354248) for the first three passages. […]

[1] = curve of first compound, second compound 0.1 µM
[2] = curve of first compound, second compound 0.316 µM
[3] = curve of first compound, second compound 1 µM
[4] = curve of first compound, second compound 3.16 µM
[5] = curve of first compound, second compound 10 µM
[6] = second compound 0.1 µM, first compound 0.000949 µM
[7] = second compound 0.1 µM, first compound 0.003 µM
[8] = second compound 0.1 µM, first compound 0.00949 µM
[9] = second compound 0.1 µM, first compound 0.03 µM
[10] = second compound 0.1 µM, first compound 0.0949 µM
[11] = second compound 0.1 µM, first compound 0.3 µM
[12] = second compound 0.316 µM, first compound 0.000949 µM
[13] = second compound 0.316 µM, first compound 0.003 µM
[14] = second compound 0.316 µM, first compound 0.00949 µM
[15] = second compound 0.316 µM, first compound 0.03 µM
[16] = second compound 0.316 µM, first compound 0.0949 µM
[17] = second compound 0.316 µM, first compound 0.3 µM
[18] = second compound 1 µM, first compound 0.000949 µM
[19] = second compound 1 µM, first compound 0.003 µM
[20] = second compound 1 µM, first compound 0.00949 µM
[21] = second compound 1 µM, first compound 0.03 µM
[22] = second compound 1 µM, first compound 0.0949 µM
[23] = second compound 1 µM, first compound 0.3 µM
[24] = second compound 3.16 µM, first compound 0.000949 µM
[25] = second compound 3.16 µM, first compound 0.003 µM
[26] = second compound 3.16 µM, first compound 0.00949 µM
[27] = second compound 3.16 µM, first compound 0.03 µM
[28] = second compound 3.16 µM, first compound 0.0949 µM
[29] = second compound 3.16 µM, first compound 0.3 µM
[30] = second compound 10 µM, first compound 0.000949 µM
[31] = second compound 10 µM, first compound 0.003 µM
[32] = second compound 10 µM, first compound 0.00949 µM
[33] = second compound 10 µM, first compound 0.03 µM
[34] = second compound 10 µM, first compound 0.0949 µM
[35] = second compound 10 µM, first compound 0.3 µM

Compound: CCc1c2c(nc3ccc(O)cc13)-c1cc3c(c(=O)n1C2)COC(=O)[C@]3(O)CC + NC1CC1c1ccc(-c2cccc(O)c2)cc1
- IC50 [1]: < 0.949 nM
- IC50 [2]: < 0.949 nM
- IC50 [3]: < 0.949 nM
- IC50 [4]: < 0.949 nM
- IC50 [5]: < 0.949 nM
- viability, T/C [6]: 4.23%
- viability, T/C [7]: 4.35%
- viability, T/C [8]: 4.15%
- viability, T/C [9]: 6.01%
- viability, T/C [10]: 8.35%
- viability, T/C [11]: 9.73%
- viability, T/C [12]: 4.4%
- viability, T/C [13]: 3.22%
- viability, T/C [14]: 4.02%
- viability, T/C [15]: 6.1%
- viability, T/C [16]: 8.62%
- viability, T/C [17]: 9.44%
- viability, T/C [18]: 3.72%
- viability, T/C [19]: 3.14%
- viability, T/C [20]: 4.57%
- viability, T/C [21]: 6.53%
- viability, T/C [22]: 7.76%
- viability, T/C [23]: 8.97%
- viability, T/C [24]: 4.08%
- viability, T/C [25]: 3.82%
- viability, T/C [26]: 4.22%
- viability, T/C [27]: 6.42%
- viability, T/C [28]: 7.92%
- viability, T/C [29]: 7.63%
- viability, T/C [30]: 3.29%
- viability, T/C [31]: 4.49%
- viability, T/C [32]: 5.68%
- viability, T/C [33]: 8.54%
- viability, T/C [34]: 9.57%
- viability, T/C [35]: 9.08%

Compound: Nc1ccn(C2OC(CO)C(O)C2(F)F)c(=O)n1 (centres undefined) + NC1CCC(NC2CC2c2ccccc2)CC1
- IC50 [1]: < 0.949 nM
- IC50 [2]: < 0.949 nM
- IC50 [3]: < 0.949 nM
- IC50 [4]: < 0.949 nM
- IC50 [5]: < 0.949 nM
- viability, T/C [6]: 4.09%
- viability, T/C [7]: 2.17%
- viability, T/C [8]: 2.51%
- viability, T/C [9]: 5.79%
- viability, T/C [10]: 3.38%
- viability, T/C [11]: 3.63%
- viability, T/C [12]: 4.14%
- viability, T/C [13]: 2.73%
- viability, T/C [14]: 2.97%
- viability, T/C [15]: 3.95%
- viability, T/C [16]: 3.04%
- viability, T/C [17]: 3.93%
- viability, T/C [18]: 4.18%
- viability, T/C [19]: 4.49%
- viability, T/C [20]: 3.51%
- viability, T/C [21]: 3.28%
- viability, T/C [22]: 5.66%
- viability, T/C [23]: 4.13%
- viability, T/C [24]: 5.7%
- viability, T/C [25]: 3.25%
- viability, T/C [26]: 3.12%
- viability, T/C [27]: 3.88%
- viability, T/C [28]: 3.97%
- viability, T/C [29]: 4.18%
- viability, T/C [30]: 4.1%
- viability, T/C [31]: 2.62%
- viability, T/C [32]: 3%
- viability, T/C [33]: 3.34%
- viability, T/C [34]: 2.68%
- viability, T/C [35]: 3.7%

Compound: Nc1ncn(C2CC(O)C(CO)O2)c(=O)n1 (centres undefined)
- viability, T/C (compound 0.00316 µM): 101% and 107%
- viability, T/C (compound 0.01 µM): 92.9% and 108%
- viability, T/C (compound 0.0316 µM): 87.4% and 97.4%
- viability, T/C (compound 0.1 µM): 77.8% and 93.8%
- viability, T/C (compound 0.316 µM): 68.4% and 82.3%
- viability, T/C (compound 1 µM): 53.7% and 76.3%
- IC50 (curve of compound): > 1000 nM

Compound: NS(=O)(=O)OCC1CC(n2ccc3c(NC4CCc5ccccc54)ncnc32)CC1O (centres undefined)
- viability, T/C (compound 0.00949 µM): 99.2% and 89.2%
- viability, T/C (compound 0.03 µM): 84.4% and 87.8%
- viability, T/C (compound 0.0949 µM): 66.8% and 85.6%
- viability, T/C (compound 0.3 µM): 23.5% and 34.7%
- viability, T/C (compound 0.949 µM): 6.87% and 15.1%
- viability, T/C (compound 3 µM): 6.08% and 15.5%
- IC50 (curve of compound): 144 nM and 212 nM
